Test results from PMC9917099, “The Mycotoxin Patulin Inhibits the Mitochondrial Carnitine/Acylcarnitine Carrier (SLC25A20) by Interaction with Cys136 Implications for Human Health” (International Journal of Molecular Sciences, 2023).

Target: T1, CAC in intact rat liver mitochondria (Rattus norvegicus, UniProt P97521)
T1 construct: the native protein extracted from rat liver mitochondria; from tissue; host or cells: rat liver mitochondria (Triton X-100 extract)
T1 sequence (P97521 1-301): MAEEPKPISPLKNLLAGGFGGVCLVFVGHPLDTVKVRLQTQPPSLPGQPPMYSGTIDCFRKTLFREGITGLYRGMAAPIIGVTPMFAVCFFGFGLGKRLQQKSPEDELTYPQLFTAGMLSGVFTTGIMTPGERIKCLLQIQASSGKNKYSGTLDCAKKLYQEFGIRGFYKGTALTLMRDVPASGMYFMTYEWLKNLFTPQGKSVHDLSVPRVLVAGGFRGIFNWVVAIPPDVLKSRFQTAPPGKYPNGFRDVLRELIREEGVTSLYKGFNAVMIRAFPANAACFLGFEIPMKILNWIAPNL
Assay: Treatment of intact rat liver mitochondria, then solubilization, reconstitution in proteoliposomes and carnitine antiport assay
Type: biochemical
Conditions: GSH alone, 5 mM, 60 min, intact mitochondria
Procedure: Figure 1 Effect of Patulin on the native carnitine/acylcarnitine carrier (CAC). (A) Dose-response analysis of proteoliposomes reconstituted with the CAC extracted from rat liver mitochondria (0.3 mg of total proteins) and incubated with PAT at the indicated concentrations for 30 min, before measuring the transport activity by adding 0.1 mM [^3H] carnitine for 10 min as described in Materials and Methods. The percentage of residual activity compared to control, without PAT treatment, is reported. The values are the means ± SD from three independent experiments. (B) Rat liver mitochondria (5 mg/100 μL) were incubated or not (control) for 60 min, with Patulin (60 μM) or GSH (5 mM) as indicated. Upon treatment, the unreacted drug was removed by washing the mitochondria in PBS 1X and then 0.3 mg mitochondria were solubilized by 3% TX-100, 10 mM PIPES pH 7.0 and reconstituted in proteoliposomes for transport assay as indicated in (A) and Materials and Methods. Black and white bars indicate without or with the addition of 5 mM dithioerythritol (DTE) 1 min before the transport assay to aliquots of each sample.
The effect of PAT on the CAC at 60 µM concentration was also detected in intact rat liver mitochondria. Upon treatment (60 min), the mitochondria were solubilized in Triton X-100 and 0.3 mg of mitochondrial extract were reconstituted in proteoliposomes for testing the transport activity of CAC (see above). […] Aliquots of intact mitochondria incubated with PAT were treated also with reduced GSH to verify whether this physiological SH-reducing agent was able to reverse the mycotoxin-protein interactions.
The recombinant CAC proteins were reconstituted in proteoliposomes as previously described. Rat liver mitochondria after purification, using the standard procedure of cell disruption and differential centrifugation were solubilized with 3% Triton X-100 in a PIPES buffer (10 mM) at pH 7.0. Herein, the mitochondrial extract (0.3 mg) were reconstituted in the liposomes as above described for the mitochondrial CAC recombinant protein, in the absence of reducing agents. The concentration of intraliposomal carnitine was 15 mM in all samples.
For the transport assay, 550 μL of proteoliposomes were passed through a Sephadex G-75 column in order to remove the external substrate. Six hundred μL of the turbid eluate were collected, divided into samples of 100 μL each, and used for transport measurement by the inhibitor-stop method. Transport was started as homoexchange by adding 0.1 mM [^3H]-carnitine to proteoliposomes containing 15 mM carnitine and, at the indicated time interval, stopped by 1.5 mM NEM (N-ethylmaleimide). The inhibitor was added together with the labelled substrate at time zero in the control samples. After finishing the transport reaction, the external radiolabel substrate was removed by gel filtration chromatography (Sephadex G-75), and the intraliposomal radioactivity was measured by liquid scintillation. Transport was measured at 25 °C. The experimental values were corrected by subtracting the controls. Transport rates were measured in 10 min, i.e., within the initial linear range of the time course.

In the case of `N[C@@H](CCC(=O)N[C@@H](CS)C(=O)NCC(=O)O)C(=O)O` [GSH, glutathione, reference compound], the “transport activity compared to control” value is reported as “moderate increase”.
